According to patent US20040186288A1, “3,5-Diamino-1,2,4-triazoles as kinase inhibitors” (priority 2001, published 2004):

Legend:
KDR (VEGFR II) = KDR (VEGFR II) (Homo sapiens, UniProt P35968); assay: KDR (VEGFR II) kinase assay; assay type: biochemical; details: poly-(Glu4Tyr) substrate, 33P-ATP, 10 minutes at room temperature
Method: (§1) KDR (VEGFR II) and Tie2 Assay
(§2) In a microtiter plate (without protein binding!) that tapers to a point, the solutions are mixed in the following sequence:
(§3) 10 μl of substrate mixture
(§4) 10 μl of inhibitor dilution
(§5) 10 μl of enzyme solution.
(§6) It is mixed thoroughly and incubated for 10 minutes at room temperature. Then, 10 μl of the stop solution is added, mixed, and 10 μl of the solution is transferred to a P 81, phosphocellulose filter. It is washed several times in 0.1 M phosphoric acid. The filter paper is dried, coated with Meltilex and measured in a microbeta. The IC50 values are determined from the inhibitor concentration that is necessary to inhibit the phosphate incorporation to 50% of the uninhibited incorporation after removal of the blank reading (EDTA-stopped reaction).
(§7) Substrate solvent: 10 mmol of DTT, 10 mmol of MnCl2, 100 mmol of MgCl2 (DTT slightly oxidized, frozen at −80° C.). Before the test, 1:10 diluted with H2O.
(§8) Enzyme solvent: 120 mmol of TrisCl, pH 7.5; 10 μmol of Na3VO4.
(§9) 10 μl of volume of ATP stock solution A+25 μCi γ-^33P-ATP (about 2.5 μl of stock solution B)+30 μl of poly-(Glu4Tyr) stock solution C+1.21 ml of substrate solvent
(§10) Substances corresponding to the dilutions, 3% DMSO in substrate solvent as a control
(§11) 11.25 μg of the enzyme stock solution (KDR and FLT-1 kinase and Tie2) are diluted at of enzyme solvent (other amounts in the case of other activity!).
(§12) Stop Solution: […] of EDTA, pH 7.0
(§13) Washing Solution: 0.5% phosphoric acid

CDK2/CycE = target: T1, CDK2/CycE (Homo sapiens, UniProt P24941); assay: CDK2/CycE kinase assay; assay type: biochemical; details: histone IIIS substrate, 0.5 μm ATP, 15 minutes at 22° C.
T1 construct: GST; purchased Dr. Dieter Marme, Klinik für Tumorbiologie, Freiburg (obtained from an outside laboratory, not a commercial vendor); host or cells: baculovirus-infected insect cells (Sf9)
Method: Recombinant CDK2- and CycE-GST-fusion proteins, purified from baculovirus-infected insect cells (Sf9), were obtained by Dr. Dieter Marme, Klinik für Tumorbiologie [Clinic for Tumor Biology], Freiburg. Histone IIIS, which was used as a kinase substrate, was purchased by the Sigma Company.
CDK2/CycE (50 ng/measuring point) was incubated for 15 minutes at 22° C. in the presence of various concentrations of test substances (0 μm, as well as within the range of 0.01-100 μm) in assay buffer [50 mmol of tris/HCl pH 8.0, 10 mmol of MgCl2, 0.1 mmol of Na ortho-vanadate, 1.0 mmol of dithiothreitol, 0.5 μm of adenosine triphosphate (ATP), 10 μg/measuring point of histone IIIS, 0.2 μCi/measuring point of ^33P-gamma ATP, 0.05% NP40, 12.5% dimethyl sulfoxide]. The reaction was stopped by adding EDTA solution (250 mmol, pH 8.0, 14 μl/measuring point).
From each reaction batch, 10 μl was applied to P30 filter strips (Wallac Company), and non-incorporated ^33P-ATP was removed by subjecting the filter strips to three washing cycles for 10 minutes each in 0.5% phosphoric acid. After the filter strips were dried for one hour at 70° C., the filter strips were covered with scintillator strips (MeltiLex™ A, Wallac Company) and baked for one hour at 90° C. The amount of incorporated ^33P (substrate phosphorylation) was determined by scintillation measurement in a gamma-radiation measuring device (Wallac).

Tie2 = Tie2 (Homo sapiens, UniProt Q02763); assay: Tie2 kinase assay; assay type: biochemical; details: poly-(Glu4Tyr) substrate, 33P-ATP, 10 minutes at room temperature; read-out: Tie 2 IC50
Method: as §1, §2, §3, §4, §5, §6, §7, §8, §9, §10, §11, §12, §13

human MCF7 tumor cells = assay: Proliferation assay (crystal violet); assay type: cell-based; details: 96 h, 4 days incubation, read-out: MCF-7 IC50
Method: Cultivated human MCF7 tumor cells were flattened out at a density of 5000 cells/measuring point in a 96-well multititer plate in 200 μl of the corresponding growth medium. After 24 hours, the cells of one plate (zero-point plate) were colored with crystal violet (see below), while the medium of the other plates was replaced by fresh culture medium (200 μl), to which the test substances were added in various concentrations (0 μm, as well as in the range of 0.01-30 μm; the final concentration of the solvent dimethyl sulfoxide was 0.5%). The cells were incubated for 4 days in the presence of test substances. The cell proliferation was determined by coloring the cells with crystal violet: the cells were fixed by adding 20 μl/measuring point of an 11% glutaric aldehyde solution for 15 minutes at room temperature. After three washing cycles of the fixed cells with water, the plates were dried at room temperature. The cells were colored by adding 100 μl/measuring point of a 0.1% crystal violet solution (the pH was set at 3 by adding acetic acid). After three washing cycles of the colored cells with water, the plates were dried at room temperature. The dye was dissolved by adding 100 μl/measuring point of a 10% acetic acid solution. The extinction was determined by photometry at a wavelength of 595 nm. The change of cell growth, in percent, was calculated by standardization of the measured values to the extinction values of the zero-point plate (=0%) and the extinction of the untreated (0 μm) cells (=100%).

Tie2, sequence (Q02763 23-1124, species assumed): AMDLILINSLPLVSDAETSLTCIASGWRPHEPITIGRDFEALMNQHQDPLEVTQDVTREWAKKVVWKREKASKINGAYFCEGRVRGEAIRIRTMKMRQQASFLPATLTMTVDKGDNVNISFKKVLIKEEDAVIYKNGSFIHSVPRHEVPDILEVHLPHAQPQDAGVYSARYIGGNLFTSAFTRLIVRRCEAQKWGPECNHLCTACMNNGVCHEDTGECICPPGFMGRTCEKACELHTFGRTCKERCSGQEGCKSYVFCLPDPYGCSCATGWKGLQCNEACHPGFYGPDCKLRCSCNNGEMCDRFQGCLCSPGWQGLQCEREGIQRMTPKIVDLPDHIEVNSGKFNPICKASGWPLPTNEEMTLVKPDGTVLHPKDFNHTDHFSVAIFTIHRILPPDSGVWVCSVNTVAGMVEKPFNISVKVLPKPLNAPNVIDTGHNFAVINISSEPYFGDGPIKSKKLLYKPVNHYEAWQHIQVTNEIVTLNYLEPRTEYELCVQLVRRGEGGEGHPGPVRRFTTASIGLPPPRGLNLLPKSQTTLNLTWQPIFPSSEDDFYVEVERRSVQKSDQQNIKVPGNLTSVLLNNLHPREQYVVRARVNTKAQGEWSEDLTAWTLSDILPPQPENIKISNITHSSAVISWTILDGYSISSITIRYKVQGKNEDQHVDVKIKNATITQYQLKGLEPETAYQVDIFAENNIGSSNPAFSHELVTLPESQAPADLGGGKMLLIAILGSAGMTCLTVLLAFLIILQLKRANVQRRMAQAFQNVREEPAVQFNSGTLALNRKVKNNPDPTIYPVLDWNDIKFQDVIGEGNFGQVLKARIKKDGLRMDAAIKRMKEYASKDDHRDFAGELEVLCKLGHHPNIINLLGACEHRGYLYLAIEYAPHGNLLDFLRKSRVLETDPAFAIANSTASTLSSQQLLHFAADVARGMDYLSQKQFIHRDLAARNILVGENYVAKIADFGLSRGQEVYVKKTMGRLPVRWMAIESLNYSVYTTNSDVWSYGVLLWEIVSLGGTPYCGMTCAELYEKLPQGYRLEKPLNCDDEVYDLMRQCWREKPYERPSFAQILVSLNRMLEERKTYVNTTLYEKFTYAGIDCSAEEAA
KDR (VEGFR II), sequence (P35968 20-1356, species assumed): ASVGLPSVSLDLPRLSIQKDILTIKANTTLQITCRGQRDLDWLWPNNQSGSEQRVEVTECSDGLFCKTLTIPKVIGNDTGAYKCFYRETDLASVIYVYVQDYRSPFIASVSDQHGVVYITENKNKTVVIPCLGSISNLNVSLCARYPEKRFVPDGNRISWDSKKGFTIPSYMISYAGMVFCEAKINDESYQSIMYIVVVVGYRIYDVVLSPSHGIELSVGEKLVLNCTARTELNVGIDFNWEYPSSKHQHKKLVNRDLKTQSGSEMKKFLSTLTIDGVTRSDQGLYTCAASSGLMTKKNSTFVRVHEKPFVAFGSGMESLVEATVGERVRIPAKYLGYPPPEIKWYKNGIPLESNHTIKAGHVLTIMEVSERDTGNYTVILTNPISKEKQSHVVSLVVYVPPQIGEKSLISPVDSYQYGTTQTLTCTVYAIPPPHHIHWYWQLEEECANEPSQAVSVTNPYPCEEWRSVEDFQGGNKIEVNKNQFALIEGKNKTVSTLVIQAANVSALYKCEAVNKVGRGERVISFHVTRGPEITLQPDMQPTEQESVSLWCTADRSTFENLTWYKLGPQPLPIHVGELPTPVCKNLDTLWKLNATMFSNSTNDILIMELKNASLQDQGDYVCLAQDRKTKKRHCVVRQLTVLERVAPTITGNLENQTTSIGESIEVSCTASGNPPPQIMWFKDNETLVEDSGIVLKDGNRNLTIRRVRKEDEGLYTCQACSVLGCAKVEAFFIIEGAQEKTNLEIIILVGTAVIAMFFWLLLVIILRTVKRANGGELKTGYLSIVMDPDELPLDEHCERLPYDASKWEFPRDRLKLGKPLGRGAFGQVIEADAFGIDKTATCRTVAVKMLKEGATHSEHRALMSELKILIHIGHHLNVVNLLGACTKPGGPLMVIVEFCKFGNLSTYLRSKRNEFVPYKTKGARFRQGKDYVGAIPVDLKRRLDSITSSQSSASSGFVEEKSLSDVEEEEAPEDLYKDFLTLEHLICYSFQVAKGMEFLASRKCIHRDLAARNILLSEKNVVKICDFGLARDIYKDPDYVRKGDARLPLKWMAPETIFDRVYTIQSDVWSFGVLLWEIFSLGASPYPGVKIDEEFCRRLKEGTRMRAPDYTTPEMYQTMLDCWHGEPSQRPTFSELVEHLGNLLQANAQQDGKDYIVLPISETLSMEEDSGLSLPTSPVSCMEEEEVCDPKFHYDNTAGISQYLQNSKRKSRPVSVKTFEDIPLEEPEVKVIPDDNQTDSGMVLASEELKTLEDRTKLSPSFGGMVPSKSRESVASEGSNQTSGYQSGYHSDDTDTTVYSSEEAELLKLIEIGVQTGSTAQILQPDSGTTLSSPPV

Compound | melting point [°C] | IC50 (KDR (VEGFR II)) [nM] | IC50 (CDK2/CycE) [nM] | IC50 (Tie2) [nM] | IC50 (human MCF7 tumor cells) [nM]
Nc1nc(Nc2cnc3ccccc3c2)nn1-c1ccc2ccccc2n1 [Example 12] | 249 | – | – | – | –
Cc1ccc(Nc2nc(N)n(-c3ccccn3)n2)c(C)n1 [Example 21] | 191 | – | – | – | –
Nc1nc(Nc2cccnc2)nn1-c1nccc2ccccc12 [Example 13] | 246 | 20 | 200 | 500 | 700
Nc1nc(Nc2nccc3ccccc23)nn1-c1ccccn1 [Example 18] | 278 | – | – | – | –
Nc1nc(Nc2cnccc2Cl)nn1-c1ccccn1 [Example 20] | 193 | – | – | – | –
Nc1nc(Nc2cncc(Br)c2)nn1-c1ccccn1 [Example 15] | 285 | 40 | 300 | 500 | 1100
Nc1nc(Nc2cccnc2)nn1-c1ccc(C(F)(F)F)cn1 [Example 6] | 254 | 200 | 2000 | > 1000 | 4000
Nc1nc(Nc2cccnc2)nn1-c1cccnc1 [Example 7] | 234 | – | – | – | –
Cc1cc(C(F)(F)F)cc(-n2nc(Nc3cccnc3)nc2N)n1 [Example 3] | 212 | 10 | 2000 | > 1000 | > 10000
Nc1nc(Nc2cccnc2)nn1-c1ccc2ccccc2c1 [Example 5] | 247 | 10 | 400 | > 1000 | 2000
Nc1nc(Nc2cncc3ccccc23)nn1-c1ccccn1 [Example 16] | 287 | 20 | 2800 | – | –
Nc1nc(Nc2cnc3ncccc3c2)nn1-c1ccccn1 [Example 17] | 253 | 30 | 500 | > 1000 | 1500
COc1ccc(Nc2nc(N)n(-c3ccccn3)n2)c(OC)n1 [Example 14] | 159 | – | – | – | –
Nc1nc(Nc2ccc3ccccc3n2)nn1-c1ccccn1 [Example 19] | 326 | – | – | – | –
Nc1nc(Nc2cnc3ccccc3c2)nn1-c1ccccn1 [Example 10] | 225 | 20 | 800 | 500 | 4000
Nc1nc(Nc2cccnc2)nn1-c1ccccc1 [Example 8] | 223 | – | – | – | –
Nc1nc(Nc2cccnc2)nn1-c1ncccc1C(F)(F)F [Example 4] | 255 | 30 | 6000 | > 1000 | 6000
Nc1nc(Nc2cccnc2)nn1-c1ccccn1 [Example 1, 5-Amino-1-(2-pyridinyl)-3-(3-pyridinylamino)-1H-1,2,4-triazole] | – | – | – | – | 1500
COc1ccc(Nc2nc(N)n(-c3ccccn3)n2)cn1 [Example 9] | 237 | 50 | 1000 | 500 | > 10000
COc1ncccc1Nc1nc(N)n(-c2ccccn2)n1 [Example 11] | 169 | – | – | – | –
